According to patent US6706740B2, “Fungicidal heterocyclic aromatic amides and their compositions, methods of use and preparation” (Dow AgroSciences LLC, priority 1999, dated 2004):

Key:
[1] = system: Stagonospora nodorum (Leptosphaeria nodorum—LEPTNO); experiment: In vitro fungal growth inhibition, Stagonospora nodorum (LEPTNO); type: cell-based; settings: Leptosphaeria; 25 ppm in growth medium; read-out: LEPTNO in vitro Growth Inhibition
[2] = system: Mycosphaerella graminicola (Septoria tritici—SEPTTR); experiment: In vitro fungal growth inhibition, Mycosphaerella graminicola (SEPTTR); type: cell-based; settings: Zymoseptoria tritici; 25 ppm in growth medium; read-out: SEPTTR in vitro Growth Inhibition
Erysiphe graminis—ERYSGT = experiment: Powdery Mildew of Wheat, in vivo whole plant, 24 Hour Protectant; settings: Erysiphe; 100 ppm spray, wheat, 24 hour protectant; control of fungal infection vs untreated plants; read-out: ERYSGT in vivo 1 Day Protectant
Ustilago maydis (USTIMA) = experiment: microbe, parasite or virus in culture; type: cell-based; settings: Mycosarcoma maydis, read-out: USTIMA in vitro Growth Inhibition
[3] = system: Puccinia recondita—PUCCRT; experiment: Brown Rust of Wheat, in vivo whole plant, 24 Hour Protectant; settings: Puccinia; 100 ppm spray, wheat, 24 hour protectant; control of fungal infection vs untreated plants; read-out: PUCCRT in vivo 1 Day Protectant
[4] = system: Rhizoctonia solani (RHIZSO); experiment: microbe, parasite or virus in culture; type: cell-based; settings: Rhizoctonia solani, read-out: RHIZSO in vitro Growth Inhibition
[5] = system: Phytophthora infestans—PHYTIN; experiment: whole plant or invertebrate; type: in vivo; settings: Phytophthora, in Solanum lycopersicum, 24 h, read-out: PHYTIN in vivo 1 Day Protectant
Septoria tritici—SEPTTR = experiment: Leaf Blotch of Wheat, in vivo whole plant, 24 Hour Protectant; settings: Zymoseptoria tritici, 24 h, 100 ppm spray, wheat, 24 hour protectant; control of fungal infection vs untreated plants; read-out: SEPTTR in vivo 1 Day Protectant
[6] = system: Magnaporthe grisea (Pyricularia oryzae—PYRIOR); experiment: microbe, parasite or virus in culture; type: cell-based; settings: Pyricularia oryzae, read-out: PYRIOR in vitro Growth Inhibition
[7] = system: Phytophthora infestans (PHYTIN); experiment: microbe, parasite or virus in culture; type: cell-based; settings: Phytophthora infestans, read-out: PHYTIN in vitro Growth Inhibition
[8] = system: Leptosphaeria nodorum—LEPTNO; experiment: Glume Blotch of Wheat, in vivo whole plant, 24 Hour Protectant; settings: 100 ppm spray, wheat, 24 hour protectant, control of fungal infection vs untreated plants; for pest or weed control at 100 ppm: Leptosphaeria, read-out: LEPTNO in vivo 1 Day Protectant

Structure (SMILES) | inhibition at 25 ppm [1] [%] | inhibition at 25 ppm [2] [%] | pest or weed control at 100 ppm (Erysiphe graminis—ERYSGT) [%] | inhibition at 25 ppm (Ustilago maydis (USTIMA)) [%] | pest or weed control at 100 ppm [3] [%] | inhibition at 25 ppm [4] [%] | pest or weed control at 100 ppm [5] [%] | pest or weed control at 100 ppm (Septoria tritici—SEPTTR) [%] | inhibition at 25 ppm [6] [%] | inhibition at 25 ppm [7] [%] | pest or weed control at 100 ppm [8] [%] | LEPTNO in vivo 1 Day Protectant [8]
COc1ccnc(C(=O)Nc2ccc(Oc3cccc(C)c3)cc2)c1O [Compound 416] | < 80 | > 80 | < 25 | < 80 | 25 to 74 | < 80 | < 25 | < 25 | > 80 | < 80 | < 25 | 
COc1ccnc(C(=O)Nc2ccc(Oc3ccc(C)cc3)cc2)c1O [Compound 417] | < 80 | > 80 | < 25 | < 80 | < 25 | < 80 | < 25 | < 25 | > 80 | < 80 |  | + +
COc1ccnc(C(=O)Nc2ccccc2Oc2ccccc2C#N)c1O [Compound 418] | < 80 | < 80 | < 25 | < 80 | 25 to 74 | < 80 | < 25 | < 25 | < 80 | < 80 | < 25 | 
COc1ccnc(C(=O)Nc2ccccc2Oc2ccc(C#N)cc2)c1O [Compound 419] | < 80 | < 80 | < 25 | < 80 | < 25 | < 80 | 25 to 74 | < 25 | < 80 | < 80 | < 25 | 
COc1ccnc(C(=O)Nc2ccc(Oc3ccccc3C#N)cc2)c1O [Compound 420] | < 80 | < 80 | < 25 | < 80 | < 25 | < 80 | < 25 | < 25 | < 80 | < 80 | 25 to 74 | 
COc1ccnc(C(=O)Nc2ccc(Oc3cccc(C#N)c3)cc2)c1O [Compound 421] | < 80 | < 80 | < 25 | < 80 | < 25 | < 80 | < 25 | < 25 | < 80 | < 80 | 25 to 74 | 
COc1ccnc(C(=O)Nc2ccc(Oc3ccc(C#N)cc3)cc2)c1O [Compound 422] | < 80 | < 80 | < 25 | < 80 | < 25 | < 80 | 25 to 74 | < 25 | > 80 | < 80 | < 25 | 
COc1ccnc(C(=O)Nc2cccc(Oc3ccc(C(F)(F)F)cc3)c2)c1O [Compound 423] | < 80 | < 80 | < 25 | < 80 | 25 to 74 | < 80 | < 25 | 25 to 74 | > 80 | < 80 | 25 to 74 | 
COc1ccnc(C(=O)Nc2ccc(Oc3cccc(C(F)(F)F)c3)cc2)c1O [Compound 424] | > 80 | < 80 | 25 to 74 | < 80 | 25 to 74 | < 80 | 25 to 74 | 25 to 74 | < 80 | < 80 | 25 to 74 | 
COc1ccnc(C(=O)Nc2ccc(Oc3ccc(C(F)(F)F)cc3)cc2)c1O [Compound 425, 3-HYDROXY-4-METHOXY-N-(4-(4-TRIFLUOROMETHYLPHENOXY)PHENYL)-PYRIDINE-2-CARBOXAMIDE] | > 80 | > 80 | < 25 | < 80 | 25 to 74 | > 80 | 25 to 74 | 25 to 74 | > 80 | < 80 | < 25 | 
COc1cccc(Oc2ccccc2NC(=O)c2nccc(OC)c2O)c1 [Compound 428] | < 80 | > 80 | < 25 | < 80 | < 25 | < 80 | < 25 | < 25 | > 80 | < 80 | < 25 | 
COc1ccc(Oc2ccccc2NC(=O)c2nccc(OC)c2O)cc1 [Compound 429] | < 80 | > 80 | < 25 | < 80 | < 25 | < 80 | < 25 | < 25 | < 80 | < 80 | < 25 | 
COc1ccccc1Oc1cccc(NC(=O)c2nccc(OC)c2O)c1 [Compound 430] | < 80 | < 80 | < 25 | < 80 | < 25 | < 80 | 25 to 74 | < 25 | < 80 | < 80 | < 25 | 
COc1cccc(Oc2cccc(NC(=O)c3nccc(OC)c3O)c2)c1 [Compound 431] | > 80 | > 80 | < 25 | < 80 | < 25 | < 80 | < 25 | 25 to 74 | < 80 | < 80 | < 25 | 
COc1ccc(Oc2cccc(NC(=O)c3nccc(OC)c3O)c2)cc1 [Compound 432] | > 80 | > 80 | < 25 | < 80 | 25 to 74 | < 80 | < 25 | < 25 | < 80 | < 80 | 25 to 74 | 
COc1ccccc1Oc1ccc(NC(=O)c2nccc(OC)c2O)cc1 [Compound 433] | < 80 | > 80 | < 25 | < 80 | < 25 | < 80 | < 25 | < 25 | < 80 | < 80 | < 25 | 
